The results in this text go back to patent US11236046B2, “Substituted heterocyclic sulfonamide compounds useful as TRPA1 modulators” (Genentech, Inc., priority 2013, dated 2022).

As a reminder, the IC50 is the point on the concentration scale where inhibition reaches its midpoint.

One experiment deals with T1, human TRPA1 (Homo sapiens (Human), UniProt O75762). Kind of experiment: IC50 determination on the human TRPA1 channel, calcium fluorescence (Hamamatsu FDSS plate reader). It is filed as cell-based. Conditions: CHO cells expressing human TRPA1; block of cinnamaldehyde induced calcium influx; 20 minutes compound incubation; Hill coefficient fixed to 1.5; read-out: hTRPA1 AUC IC50. The procedure: IC50s (effective concentration) of compounds on the human TRPA1 channel were determined using a Hamamatsu FDSS fluorescence plate reader. CHO cells expressing human TRPA1 were plated into 384-well plates, incubated overnight at 37 C, and loaded with BD calcium indicator dye for 1 hr at 37° C. followed by 15 minutes. at room temperature. The assay buffer was Hank's Balanced Salt Solution (HBSS) containing 20 mM HEPES (pH readjusted to 7.4) along with 0.02% BSA.
T1 sequence (O75762 whole entry): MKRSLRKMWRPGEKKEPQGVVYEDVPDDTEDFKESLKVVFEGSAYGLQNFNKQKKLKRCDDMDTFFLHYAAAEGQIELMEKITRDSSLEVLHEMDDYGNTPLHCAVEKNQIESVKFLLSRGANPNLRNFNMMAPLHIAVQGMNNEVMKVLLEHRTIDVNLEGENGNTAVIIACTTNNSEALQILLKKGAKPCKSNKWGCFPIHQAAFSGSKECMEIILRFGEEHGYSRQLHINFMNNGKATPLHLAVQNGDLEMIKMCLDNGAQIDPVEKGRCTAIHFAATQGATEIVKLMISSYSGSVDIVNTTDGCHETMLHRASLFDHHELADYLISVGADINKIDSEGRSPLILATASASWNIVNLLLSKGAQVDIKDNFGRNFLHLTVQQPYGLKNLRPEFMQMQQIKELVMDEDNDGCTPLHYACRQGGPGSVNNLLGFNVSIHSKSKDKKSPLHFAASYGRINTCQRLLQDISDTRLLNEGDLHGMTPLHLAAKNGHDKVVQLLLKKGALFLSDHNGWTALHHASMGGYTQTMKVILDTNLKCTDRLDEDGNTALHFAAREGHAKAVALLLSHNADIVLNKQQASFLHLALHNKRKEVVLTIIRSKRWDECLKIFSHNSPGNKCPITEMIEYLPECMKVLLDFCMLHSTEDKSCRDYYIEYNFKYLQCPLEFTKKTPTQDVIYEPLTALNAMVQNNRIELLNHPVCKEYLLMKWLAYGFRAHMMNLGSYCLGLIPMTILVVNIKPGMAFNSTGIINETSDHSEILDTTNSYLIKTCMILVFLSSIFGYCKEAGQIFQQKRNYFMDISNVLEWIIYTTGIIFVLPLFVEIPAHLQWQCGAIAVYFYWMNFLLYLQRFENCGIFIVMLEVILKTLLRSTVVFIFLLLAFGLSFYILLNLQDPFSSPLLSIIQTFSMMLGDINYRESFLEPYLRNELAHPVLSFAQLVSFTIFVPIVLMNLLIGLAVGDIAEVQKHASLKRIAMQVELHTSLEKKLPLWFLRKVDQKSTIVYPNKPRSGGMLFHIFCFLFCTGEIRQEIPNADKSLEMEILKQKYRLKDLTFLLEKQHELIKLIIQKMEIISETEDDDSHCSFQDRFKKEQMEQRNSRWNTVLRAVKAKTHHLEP
Following dye load and plate cool down, compounds were added to the cells using the FDSS while monitoring fluorescence to determine whether any of the test compounds have TRPA1 agonist activity. Plates were then incubated with compound for 20 minutes at room temperature prior to adding agonist. Following this incubation, […] cinnamaldehyde was added to all wells of the plate and block of this cinnamaldehyde induced calcium influx was measured.
Fixing the Hill coefficient will generally reduce variability of the IC50 determination. The IC50s were examined by eye to make sure the MIN and MAX points were set correctly prior to validation of the results.
Regarding `C[C@@]1(C(=O)NCc2cc(-c3ccc(C(F)(F)F)nc3)ncn2)C[C@@H](F)CN1S(=O)(=O)c1ccc(F)cc1` (single isomer, unassigned) [Example 19], the IC50 worked out at 16 nM.

Regarding `C[C@@]1(C(=O)NCc2cc(-c3ccc(C(F)(F)F)cc3)ncn2)C[C@@H](F)CN1S(=O)(=O)c1ccc(F)cc1` (single isomer, unassigned) [Example 20], the IC50 was 7 nM. The same measure, in the same setting: next, `C[C@@]1(C(=O)NCc2cc(-c3ccc(C(F)(F)F)nc3)ncn2)CCCN1S(=O)(=O)c1ccc(F)cc1` [Example 1, (S)-1-(4-fluorophenylsulfonyl)-2-methyl-N-((6-(6-(trifluoromethyl)pyridin-3-yl)pyrimidin-4-yl)methyl)pyrrolidine-2-carboxamide]: 51 nM. `C[C@@]1(C(=O)NCc2cc(-c3ccc(C(F)(F)F)nc3)ncn2)CCN1S(=O)(=O)c1ccc(F)cc1` [Example 2, (S)-1-(4-fluorophenylsulfonyl)-2-methyl-N-((6-(6-(trifluoromethyl)pyridin-3-yl)pyrimidin-4-yl)methyl)azetidine-2-carboxamide]: the IC50 stood at 59 nM.

Take `O=C(NCc1cc(-c2ccc(C(F)(F)F)nc2)ncn1)[C@@H]1C[C@@H](F)CN1S(=O)(=O)c1ccc(F)cc1` [Example 3, (2S,4R)-4-fluoro-1-(4-fluorophenylsulfonyl)-N-((6-(6-(trifluoromethyl)pyridin-3-yl)pyrimidin-4-yl)methyl)pyrrolidine-2-carboxamide]: the half-maximal inhibitory concentration (IC50) was determined as 97 nM. On the same count and under the same terms, then `O=C(NCc1cc(-c2ccc(C(F)(F)F)nc2)ncn1)[C@@H]1C[C@H](F)CN1S(=O)(=O)c1ccc(F)cc1` [Example 4, (2S,4S)-4-fluoro-1-(4-fluorophenylsulfonyl)-N-((6-(6-(trifluoromethyl)pyridin-3-yl)pyrimidin-4-yl)methyl)pyrrolidine-2-carboxamide], with 819 nM; and `O=C(NCc1cc(-c2ccc(C(F)(F)F)cc2)ncn1)[C@@H]1C[C@@H](F)CN1S(=O)(=O)c1ccc(F)cc1` [Example 5, (2S,4R)-4-fluoro-1-(4-fluorophenylsulfonyl)-N-((6-(4-(trifluoromethyl)phenyl)pyrimidin-4-yl)methyl)pyrrolidine-2-carboxamide], with 15 nM. On the same count and under the same terms, next, `O=C(NCc1cc(-c2ccc(C(F)(F)F)cc2)ncn1)[C@@H]1C[C@@H](F)CN1S(=O)(=O)c1cccc(F)c1` [Example 6, (2S,4R)-4-fluoro-1-(3-fluorophenylsulfonyl)-N-((6-(4-(trifluoromethyl)phenyl)pyrimidin-4-yl)methyl)pyrrolidine-2-carboxamide]: 23 nM; `O=C(NCc1cc(-c2ccc(C(F)(F)F)nc2)ncn1)[C@]1(CO)CCCN1S(=O)(=O)c1ccc(F)cc1` [Example 7, (R)-1-(4-fluorophenylsulfonyl)-2-(hydroxymethyl)-N-((6-(6-(trifluoromethyl)pyridin-3-yl)pyrimidin-4-yl)methyl)pyrrolidine-2-carboxamide]: 284 nM. Still for that read-out and setting: then `O=C(NCc1cc(-c2ccc(C(F)(F)F)nc2)ncc1F)[C@@H]1C[C@@H](F)CN1S(=O)(=O)c1ccc(F)cc1` [Example 8, (2S,4R)-4-fluoro-N-((5-fluoro-6′-(trifluoromethyl)-2,3′-bipyridin-4-yl)methyl)-1-(4-fluorophenylsulfonyl)pyrrolidine-2-carboxamide], with 17 nM; and `O=C(NCc1cc(-c2ccc(C(F)(F)F)nc2)c(F)cn1)[C@@H]1C[C@@H](F)CN1S(=O)(=O)c1ccc(F)cc1` [Example 9, (2S,4R)-4-fluoro-N-((5′-fluoro-6-(trifluoromethyl)-3,4′-bipyridin-2′-yl)methyl)-1-(4-fluorophenylsulfonyl)pyrrolidine-2-carboxamide], with 20 nM.

Take `O=C(NCc1cc(-c2ccc(C3CC3)cc2)ncn1)[C@@H]1C[C@@H](F)CN1S(=O)(=O)c1ccc(F)cc1` [Example 10, (2S,4R)—N-((6-(4-cyclopropylphenyl)pyrimidin-4-yl)methyl)-4-fluoro-1-(4-fluorophenylsulfonyl)pyrrolidine-2-carboxamide]: the IC50 was determined as 107 nM. Same read-out and setting: next, `O=C(NCc1cc(N2CCC(C(F)(F)F)CC2)ncn1)[C@@H]1C[C@@H](F)CN1S(=O)(=O)c1ccc(F)cc1` [Example 11, (2S,4R)-4-fluoro-1-(4-fluorophenylsulfonyl)-N-((6-(4-(trifluoromethyl)piperidin-1-yl)pyrimidin-4-yl)methyl)pyrrolidine-2-carboxamide]: 434 nM; `O=C(NCc1cc(C2=CCC(C(F)(F)F)CC2)ncn1)[C@@H]1C[C@@H](F)CN1S(=O)(=O)c1ccc(F)cc1` (stereo partly drawn) [Example 12, (2S,4R)-4-fluoro-1-(4-fluorophenylsulfonyl)-N-((6-(4-(trifluoromethyl)cyclohex-1-enyl)pyrimidin-4-yl)methyl)pyrrolidine-2-carboxamide]: 30 nM; `C[C@@]1(C(=O)NCc2cc(-c3ccc(C(F)(F)F)cn3)ncn2)CCCN1S(=O)(=O)c1ccc(F)cc1` [Example 14, (S)-1-(4-fluorophenylsulfonyl)-2-methyl-N-((6-(5-(trifluoromethyl)pyridin-2-yl)pyrimidin-4-yl)methyl)pyrrolidine-2-carboxamide]: 268 nM.

On to `O=C(NCc1cn(-c2ccc(C(F)(F)F)nc2)nc1Cl)[C@@H]1C[C@@H](F)CN1S(=O)(=O)c1ccc(F)cc1` [Example 15, (2S,4R)—N-([3-chloro-1-[6-(trifluoromethyl)pyridin-3-yl]-1H-pyrazol-4-yl]methyl)-4-fluoro-1-[(4-fluorobenzene)sulfonyl]pyrrolidine-2-carboxamide], for which the IC50 was found to be 30 nM. The same measure, in the same setting: next, `O=C(NCc1cn(-c2ccc(C(F)(F)F)cc2)nc1Cl)[C@@H]1C[C@@H](F)CN1S(=O)(=O)c1ccc(F)cc1` [Example 16, (2S,4R)—N-([3-chloro-1-[4-(trifluoromethyl)phenyl]-1H-pyrazol-4-yl]methyl)-4-fluoro-1-[(4-fluorobenzene)sulfonyl]pyrrolidine-2-carboxamide]: 8 nM; `O=C(NCc1cn(-c2ccc(C(F)(F)F)nc2)nc1C1CC1)[C@@H]1C[C@@H](F)CN1S(=O)(=O)c1ccc(F)cc1` [Example 17, (2S,4R)—N-([3-cyclopropyl-1-[6-(trifluoromethyl)pyridin-3-yl]-1H-pyrazol-4-yl]methyl)-4-fluoro-1-[(4-fluorobenzene)sulfonyl]pyrrolidine-2-carboxamide]: 55 nM. On the same count and under the same terms, next, `N#Cc1ccc(S(=O)(=O)N2C[C@H](F)C[C@H]2C(=O)NCc2cn(-c3ccc(C(F)(F)F)cc3)nc2Cl)cc1` [Example 18, (2S,4R)—N-([3-chloro-1-[4-(trifluoromethyl)phenyl]-1H-pyrazol-4-yl]methyl)-1-[(4-cyanobenzene)sulfonyl]-4-fluoropyrrolidine-2-carboxamide]: 49 nM; `O=C(NCc1cc(-c2ccc(OC(F)(F)F)cc2)ncn1)[C@@H]1C[C@@H](F)CN1S(=O)(=O)c1ccc(F)cc1` [Example 21, (2S,4R)-4-fluoro-1-(4-fluorophenylsulfonyl)-N-((6-(4-(trifluoromethoxy)phenyl)pyrimidin-4-yl)methyl)pyrrolidine-2-carboxamide]: 21 nM. Still for that read-out and setting: then `Cc1nc(CNC(=O)[C@@H]2C[C@@H](F)CN2S(=O)(=O)c2ccc(F)cc2)cc(-c2ccc(C(F)(F)F)nc2)n1` [Example 22, (2S,4R)-4-fluoro-1-(4-fluorophenylsulfonyl)-N-((2-methyl-6-(6-(trifluoromethyl)pyridin-3-yl)pyrimidin-4-yl)methyl)pyrrolidine-2-carboxamide], with 87 nM.

The target of another experiment is T1, human TRPA1. Kind of experiment: FLIPR Tetra calcium influx assay, block of cinnamaldehyde-induced calcium influx in CHO cells expressing TRPA1 (human). As to conditions: 20 min compound incubation, 75 uM cinnamaldehyde (~EC80), Hill coefficient fixed to 1.5, read-out: hTRPA1 AUC IC50. It is filed as cell-based. Put shortly: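 CHO cells loaded with calcium dye, preincubated with compounds 20 min at room temperature in HBSS/20 mM HEPES pH 7.4 with 0.02% BSA. Channels activated by ~EC80 cinnamaldehyde (75 uM human, 45 uM rat); block of calcium influx read on FLIPR Tetra, IC50 fitted with fixed Hill coefficient.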
With `O=C(NCc1cn(-c2ccc(C(F)(F)F)nc2)nc1Cl)[C@@H]1CCN1S(=O)(=O)c1ccc(F)cc1` [Example 199, (2S)—N-([3-chloro-1-[6-(trifluoromethyl)pyridin-3-yl]-1H-pyrazol-4-yl]methyl)-1-[(4-fluorobenzene)sulfonyl]azetidine-2-carboxamide], the IC50 stood at 138 nM. Still for that read-out and setting: then `C[C@@H]1C[C@@H](C(=O)NCc2cc(-c3ccc(C(F)(F)F)nc3)ncn2)N1S(=O)(=O)c1ccc(F)cc1` [Example 200, (2S,4R)-1-[(4-fluorobenzene)sulfonyl]-4-methyl-N-([6-[6-(trifluoromethyl)pyridin-3-yl]pyrimidin-4-yl]methyl)azetidine-2-carboxamide], with 333 nM; and `O=C(NCc1cc(-c2ccc(C(F)(F)F)nc2)ncn1)[C@@H]1CCN1S(=O)(=O)c1ccc(F)cc1` [Example 201, (S)-1-(4-fluorophenylsulfonyl)-N-((6-(6-(trifluoromethyl)pyridin-3-yl)pyrimidin-4-yl)methyl)azetidine-2-carboxamide], with 268 nM. Turning to “(2S,4R)-4-fluoro-1-(4-fluorophenyl)sulfonyl-N-[[3-fluoro-5-[2-(trifluoromethyl)thiazol-5-yl]phenyl]methyl]pyrrolidine-2-carboxamide [Example 174]”, the IC50 stood at 12 nM.

As to “(2S,4R)-4-fluoro-N-[[5-fluoro-4-[5-fluoro-6-(trifluoromethyl)-3-pyridyl]-2-pyridyl]methyl]-1-(4-fluorophenyl)sulfonyl-pyrrolidine-2-carboxamide [Example 65]”, the IC50 was determined as 40 nM.
